# Source: patent US20160222014A1, “COMPOUNDS FOR REGULATING FAK AND/OR SRC PATHWAYS” (ASANA BIOSCIENCES, LLC, priority 2013, published 2016)
# pIC50: −log10 of the molar value.
# Tests used:
# [1] = molecular target: T1, FAK phosphorylated at Y397 in HEK-FAK cell line overexpressing human FL FAK protein (Homo sapiens, UniProt Q05397); test: Cell based assay, Phospho-FAK ELISA; conditions: HEK stb; read-out: pFAK EC50 (μM) HEK stb
# T1 construct: expressed in transfected cells
# In short: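 Stable HEK293 line overexpressing full-length human FAK, kept under 0.8 mg/mL Zeocin. In lysates, FAK Y397 autophosphorylation was measured by sandwich ELISA: total-FAK capture antibody, biotinylated pY397-specific detection antibody, streptavidin-HRP with TMB substrate.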
# AURKB (Aurora B) enzyme = molecular target: T2, AURKB (Aurora B) enzyme (Homo sapiens, UniProt Q96GD4); test: Aurora B HTRF assay; assay type: biochemical; conditions: read-out: AuroraB IC50
# T2 construct: purchased Invitrogen PVR 130
# In short: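 HTRF kinase assay with 5 nM Aurora B and 50 nM ULight-PLK (Ser137) peptide, with a reagent at 30 μM final; 1 h at rt. Reaction stopped with EDTA, and phospho-peptide detected with 2 nM Eu-anti-P-PLK(Ser137) antibody after 1 h at rt, read as HTRF.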
# Recombinant Src enzyme = molecular target: T3, Recombinant Src enzyme (Homo sapiens, UniProt P12931); test: Src HTRF assay; assay type: biochemical
# T3 construct: purchased Millipore 14-326; host or cells: Sf21 insect cells
# In short: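 Sf21-expressed recombinant Src at 5 nM final with biotinylated N-terminally tagged Tyk2 peptide substrate at 0.5 μM final; a component freshly made in enzyme assay buffer pH7.4 was used at 10 μM final. Buffer, supplements, compound handling and procedure as in the FAK HTRF assay; dasatinib included.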
# JAK2 = JAK2 (Homo sapiens, UniProt O60674); test: JAK2 biochemical potency; conditions: read-out: JAK2 HTRF IC50
# recombinant human FAK1 = molecular target: T4, recombinant human FAK1 (Homo sapiens, UniProt Q05397); test: FAK1 HTRF assay; assay type: biochemical
# T4 construct: fused on or other part: N-terminal 6xHis tag
# In short: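 His-tagged human FAK1 (residues 692–end, Sf9-expressed), 10 nM final, with 0.5 μM biotinylated gastrin-precursor Tyr87 peptide and a 10 μM final reagent in pH 7.4 buffer, 45 min at rt. Detection used Eu anti-pTyr antibody plus SA-APC (665/620 nm). Compounds top concentration 10 μM; IC50 from % inhibition.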
# Phospho Src(Y416) = molecular target: T5, Phospho Src(Y416) (Homo sapiens, UniProt P12931); test: Phospho Src(Y416) Sandwich ELISA; assay type: cell-based; conditions: Panc1; read-out: pSrc EC50 (μM) Panc1
# T5 construct: endogenous in cells; host or cells: Panc1
# Procedure: E. Phospho Src(Y416) Sandwich ELISA
# Phospho Src(Y416) Sandwich ELISA kit was obtained from Cell Signaling Tech.
# (i) Reagent Preparation • 1. All microwell strips were brought to rt before use. • 2. 1× Wash Buffer was prepared by diluting 20× Wash Buffer (included in each PathScan® Sandwich ELISA Kit) in MilliQ® water or equivalently purified water. • 3. 1× Cell Lysis Buffer from CST #9803: 20 mM Tris (pH 7.5), 150 mM NaCl, 1 mM ethylene diamine tetraacetate (EDTA), 1 mM ethylene glycol-bis(2-aminoethyl)-N,N,N′,N′-tetraacetic acid (EGTA), 1% Triton™ X-100, 2.5 mM sodium pyrophosphate, 1 mM b-glycerophosphate, 1 mM Na3VO4, 1 μg/mL leupeptin. This buffer was stored at 4° C. for short-term use (1-2 weeks).
# (ii) Preparing Cell Lysates • 1. The media was aspirated. The cells were treated by adding fresh media containing inhibitor for 1 h. The compound of Example 214 was used as reference. • 2. The cells were harvested under non-denaturing conditions by removing media and rinsing cells once with ice-cold PBS. • 3. PBS was removed, 0.5 mL ice-cold 1× Cell Lysis Buffer plus 1 mM phenylmethylsulfonylfluoride (PMSF) was added to each plate (10 cm in diameter) and the plate incubated on ice for 5 min. • 4. The cells were scraped off of the plate, transferred to an appropriate tube, and kept on ice. • 5. The lysates were sonicated on ice. • 6. Microcentrifugation was performed for 10 min at 4° C. and the supernatant transferred to a new tube. The supernatant was the cell lysate and was stored at −80° C. in single-use aliquots.
# (iii) Test Procedure • 1. After the microwell strips reached rt, the required number of microwells were broken off. The microwells were placed in the strip holder. Unused microwells were resealed and stored at 4° C. immediately. • 2. 100 μL of Sample Diluent (supplied in each PathScan® Sandwich ELISA Kit, blue color) was added to a micro centrifuge tube. 100 μL of cell lysate was transferred into the tube and vortexed for a few seconds. […] Individual data sheets for each kit provided information regarding an appropriate dilution factor for lysates and kit assay results. However, dilution factors were titrated when specific cell lysates are used. • 3. 100 μL of each diluted cell lysate were added to the appropriate well. It was then sealed with tape and pressed firmly onto top of microwells. The plate was incubated for 2 h at 37° C. Alternatively, the plate was incubated overnight at 4° C., which gave the best detection of target protein. • 4. The tape was gently removed and the wells washed: • a. The plate contents were discarded into a receptacle. • b. Each well was washed 4 times with 1× Wash Buffer, 200 μL. • c. For each wash, plates were struck on fresh towels hard enough to remove the residual solution in each well, but wells were not allowed to completely dry at any time. • d. The underside of all wells was cleaned with a lint-free tissue. • 5. 100 μL of Detection Antibody (green color) was added to each well, sealed with tape and the plate incubated for 1 h at 37° C. • 6. The wash procedure was repeated as in Step 4. • 7. 100 μL of HRP-linked secondary antibody (red color) was added to each well, sealed with tape and the plate incubated plate for 30 min at 37° C. • 8. The wash procedure was repeated as in Step 4. • 9. 100 μL of TMB Substrate was added to each well, sealed with tape and the plate incubated for 10 min at 37° C. or 30 min at 25° C. • 10. 100 μL of STOP Solution was added to each well and shaken gently for a few seconds. Initial color of positive reaction was blue, which changed to yellow upon addition of STOP Solution. • 11. The results were read. • a. Visual Determination—read within 30 min after adding STOP Solution. • b. Spectrophotometric Determination—the underside of wells were wiped with a lint-free tissue and absorbance read at 450 nm within 30 min after adding STOP Solution.
# T3 sequence (P12931 whole entry): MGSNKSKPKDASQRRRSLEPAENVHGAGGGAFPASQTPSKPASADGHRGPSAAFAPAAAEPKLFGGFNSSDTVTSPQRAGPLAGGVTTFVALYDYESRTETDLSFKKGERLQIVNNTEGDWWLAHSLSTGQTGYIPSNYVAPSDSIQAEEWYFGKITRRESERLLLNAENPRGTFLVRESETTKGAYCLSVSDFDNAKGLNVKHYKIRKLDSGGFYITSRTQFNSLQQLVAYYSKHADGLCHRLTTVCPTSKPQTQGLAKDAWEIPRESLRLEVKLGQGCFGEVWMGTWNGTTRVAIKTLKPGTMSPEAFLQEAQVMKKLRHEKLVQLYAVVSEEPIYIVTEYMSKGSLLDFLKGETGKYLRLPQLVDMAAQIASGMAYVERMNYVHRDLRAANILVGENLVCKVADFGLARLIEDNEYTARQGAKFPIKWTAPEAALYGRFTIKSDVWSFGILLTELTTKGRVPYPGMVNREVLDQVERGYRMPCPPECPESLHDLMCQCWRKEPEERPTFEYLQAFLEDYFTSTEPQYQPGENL
# T5 sequence (P12931 whole entry): as above
# T2 sequence (Q96GD4 whole entry): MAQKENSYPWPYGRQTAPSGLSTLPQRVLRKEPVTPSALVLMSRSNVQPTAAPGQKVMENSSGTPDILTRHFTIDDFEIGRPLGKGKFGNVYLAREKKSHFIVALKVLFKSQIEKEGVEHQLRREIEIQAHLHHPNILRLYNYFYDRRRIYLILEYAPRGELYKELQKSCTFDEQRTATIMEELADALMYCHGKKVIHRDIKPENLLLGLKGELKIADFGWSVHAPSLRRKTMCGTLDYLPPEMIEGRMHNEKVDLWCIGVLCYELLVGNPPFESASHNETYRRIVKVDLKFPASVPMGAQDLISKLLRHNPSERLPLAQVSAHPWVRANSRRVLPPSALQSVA
# T4 sequence (Q05397 422-680 limits assumed): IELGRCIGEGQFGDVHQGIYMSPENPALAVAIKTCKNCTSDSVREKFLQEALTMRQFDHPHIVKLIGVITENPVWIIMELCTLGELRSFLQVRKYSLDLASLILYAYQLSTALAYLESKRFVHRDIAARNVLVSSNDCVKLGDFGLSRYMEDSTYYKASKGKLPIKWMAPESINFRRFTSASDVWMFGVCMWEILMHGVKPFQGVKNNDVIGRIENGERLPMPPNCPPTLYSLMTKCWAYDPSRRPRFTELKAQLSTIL
# T1 sequence (Q05397 whole entry): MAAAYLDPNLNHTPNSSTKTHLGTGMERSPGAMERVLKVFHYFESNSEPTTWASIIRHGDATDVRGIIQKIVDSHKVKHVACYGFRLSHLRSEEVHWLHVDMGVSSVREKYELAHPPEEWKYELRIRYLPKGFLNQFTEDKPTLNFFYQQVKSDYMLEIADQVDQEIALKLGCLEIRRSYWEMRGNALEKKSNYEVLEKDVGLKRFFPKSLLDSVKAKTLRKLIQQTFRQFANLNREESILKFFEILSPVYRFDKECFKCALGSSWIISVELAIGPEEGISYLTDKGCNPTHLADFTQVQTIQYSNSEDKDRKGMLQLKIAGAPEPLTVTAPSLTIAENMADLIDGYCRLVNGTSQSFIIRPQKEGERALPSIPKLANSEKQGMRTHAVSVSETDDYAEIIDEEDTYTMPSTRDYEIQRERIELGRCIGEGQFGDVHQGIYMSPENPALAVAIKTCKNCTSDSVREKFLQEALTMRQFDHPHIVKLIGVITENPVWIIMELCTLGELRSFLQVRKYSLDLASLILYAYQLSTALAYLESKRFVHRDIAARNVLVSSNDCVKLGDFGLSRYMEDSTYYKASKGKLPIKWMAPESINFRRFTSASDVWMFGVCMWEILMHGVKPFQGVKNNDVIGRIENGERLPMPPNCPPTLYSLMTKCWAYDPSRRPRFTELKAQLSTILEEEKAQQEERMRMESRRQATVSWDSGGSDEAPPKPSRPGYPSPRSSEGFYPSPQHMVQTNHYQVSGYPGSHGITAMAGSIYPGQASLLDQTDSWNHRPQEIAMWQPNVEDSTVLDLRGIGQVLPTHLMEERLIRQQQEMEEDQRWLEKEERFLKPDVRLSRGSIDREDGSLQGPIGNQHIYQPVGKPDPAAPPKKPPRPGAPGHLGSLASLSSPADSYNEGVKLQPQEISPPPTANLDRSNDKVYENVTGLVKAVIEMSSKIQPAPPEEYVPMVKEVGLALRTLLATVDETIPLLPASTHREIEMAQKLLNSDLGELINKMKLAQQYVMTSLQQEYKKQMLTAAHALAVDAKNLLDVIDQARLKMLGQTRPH
# Sequence of JAK2 (O60674 whole entry, species assumed): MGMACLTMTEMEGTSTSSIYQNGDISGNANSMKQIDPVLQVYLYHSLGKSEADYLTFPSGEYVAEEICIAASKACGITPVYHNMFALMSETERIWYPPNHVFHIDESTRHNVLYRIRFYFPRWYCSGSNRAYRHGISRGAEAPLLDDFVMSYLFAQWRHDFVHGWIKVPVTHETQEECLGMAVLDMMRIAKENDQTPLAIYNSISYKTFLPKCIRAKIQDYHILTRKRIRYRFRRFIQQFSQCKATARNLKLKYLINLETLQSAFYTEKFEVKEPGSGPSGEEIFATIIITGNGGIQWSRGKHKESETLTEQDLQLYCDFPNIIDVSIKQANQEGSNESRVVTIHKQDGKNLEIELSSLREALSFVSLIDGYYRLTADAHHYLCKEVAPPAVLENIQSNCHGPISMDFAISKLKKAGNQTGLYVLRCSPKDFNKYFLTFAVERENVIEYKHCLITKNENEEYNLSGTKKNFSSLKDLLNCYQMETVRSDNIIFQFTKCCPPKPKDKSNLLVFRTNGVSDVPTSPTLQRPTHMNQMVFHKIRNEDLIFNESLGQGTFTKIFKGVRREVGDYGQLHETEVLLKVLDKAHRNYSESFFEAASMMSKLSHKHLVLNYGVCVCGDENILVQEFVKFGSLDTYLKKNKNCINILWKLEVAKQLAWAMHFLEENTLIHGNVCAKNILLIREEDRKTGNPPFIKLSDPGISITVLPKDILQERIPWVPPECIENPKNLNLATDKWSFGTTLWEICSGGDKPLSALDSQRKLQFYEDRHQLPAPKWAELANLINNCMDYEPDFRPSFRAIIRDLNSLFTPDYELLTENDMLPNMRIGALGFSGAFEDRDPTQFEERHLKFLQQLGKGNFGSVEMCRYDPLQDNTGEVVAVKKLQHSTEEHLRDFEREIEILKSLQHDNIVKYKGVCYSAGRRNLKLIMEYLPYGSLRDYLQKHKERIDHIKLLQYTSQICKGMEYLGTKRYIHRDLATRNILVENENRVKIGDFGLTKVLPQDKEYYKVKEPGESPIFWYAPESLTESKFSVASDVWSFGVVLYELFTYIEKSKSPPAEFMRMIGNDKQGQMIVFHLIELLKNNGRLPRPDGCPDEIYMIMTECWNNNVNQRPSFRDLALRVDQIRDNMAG
EC50 [1],pIC50 (AURKB (Aurora B) enzyme),pIC50 (Recombinant Src enzyme),pIC50 (JAK2),pIC50 (recombinant human FAK1),EC50 (Phospho Src(Y416)),SMILES
> 1 µM,< 6.00,< 6.00,< 6.00,–,–,O=C1CCc2cc(Nc3cc4c(ccn4S(=O)(=O)c4ccccc4OC(F)(F)F)cn3)ccc2N1 [Example 59]
> 1 µM,–,–,> 7.70,> 7.70,–,CN(c1ccccc1Cn1ccc2cnc(Nc3ccc(N4CCOCC4)cc3)nc21)S(C)(=O)=O [Example 111]
–,–,–,–,> 7.70,> 1 µM,O=C1CCc2cc(Nc3ncc4ccn(S(=O)(=O)c5ccccc5OC(F)F)c4n3)ccc2N1 [Example 151]
> 1 µM,< 6.00,< 6.00,< 6.00,–,–,COc1ccccc1Nc1ncc2ccn(Cc3cccnc3N(C)S(C)(=O)=O)c2n1 [Example 154]
> 1 µM,> 7.70,–,> 7.70,> 7.70,–,N#Cc1ccccc1S(=O)(=O)n1ccc2cnc(Nc3ccc(N4CCNCC4)cc3)nc21 [Example 185]
> 1 µM,> 7.70,–,> 7.70,> 7.70,–,CN(C)S(=O)(=O)c1ccccc1Cn1ncc2cnc(Nc3ccc4c(c3)CCC(=O)N4)cc21 [Example 204]
> 1 µM,–,–,> 7.70,–,–,CN(C)S(=O)(=O)c1ccccc1Cn1ncc2cnc(Nc3ccc(N4CCNCC4)cc3)cc21 [Example 208]
–,> 7.70,> 7.70,> 7.70,> 7.70,–,C[C@@H]1CN(c2ccc(Nc3ncc4ccn(S(=O)(=O)c5cccc6cccnc56)c4n3)cc2)CCN1 [Example 213]
> 1 µM,> 7.70,> 7.70,> 7.70,–,–,O=S(=O)(c1ccccc1)n1ccc2cnc(Nc3ccc(N4CCNCC4)cc3)nc21 [Example 224]
> 1 µM,> 7.70,–,> 7.70,–,–,C[C@@H]1CN(c2ccc(Nc3ncc4ccn(S(=O)(=O)c5ccccc5C#N)c4n3)cc2)CCN1 [Example 243]
–,–,–,–,–,< 0.02 µM,O=S(=O)(c1ccccc1)n1ncc2cnc(Nc3ccc(N4CCNCC4)cc3)nc21 [Example 255]
> 1 µM,> 7.70,–,> 7.70,–,–,C[C@H]1CN(c2ccc(Nc3ncc4ccn(S(=O)(=O)c5cccc(C#N)c5)c4n3)cc2)CCN1 [Example 306]
–,> 7.70,> 7.70,> 7.70,> 7.70,–,O=S(=O)(c1cccc2cccnc12)n1ccc2cnc(Nc3ccc(N4CCN(CCO)CC4)cc3)nc21 [Example 311]
> 1 µM,–,–,> 7.70,–,–,C[C@H]1CNCCN1c1ccc(Nc2ncc3ccn(Cc4cccnc4N(C)S(C)(=O)=O)c3n2)cc1 [Example 320]
–,> 7.70,< 6.00,< 6.00,> 7.70,–,COc1cc(N2CCNCC2)ccc1Nc1ncc2ccn(S(=O)(=O)c3cccc4cccnc34)c2n1 [Example 327]
–,> 7.70,< 6.00,< 6.00,> 7.70,–,O=S(=O)(c1cccc2cccnc12)n1ccc2cnc(Nc3ccc(N4CC5CC4CN5)cc3)cc21 (centres unmarked) [Example 329]

EC50 [1],pIC50 (AURKB (Aurora B) enzyme),pIC50 (Recombinant Src enzyme),pIC50 (JAK2),pIC50 (recombinant human FAK1),EC50 (Phospho Src(Y416)),SMILES
< 0.02 µM,–,< 6.00,< 6.00,> 7.70,–,"COc1cc(N2CCNCC2)ccc1Nc1cc2c(cn1)cnn2S(=O)(=O)c1cccc2cccnc12 [Example 338, N-(2-methoxy-4-(piperazin-1-yl)phenyl)-1-(quinolin-8-ylsulfonyl)-1H-pyrazolo[4,3-c]pyridin-6-amine]"
–,–,–,–,> 7.70,> 1 µM,COc1ccccc1S(=O)(=O)n1ccc2cnc(Nc3ccc(N4CCN(C(=O)C5CC5)CC4)cc3)nc21 [Example 350]
–,> 7.70,< 6.00,< 6.00,> 7.70,–,COc1cc(N2CCC(O)CC2)ccc1Nc1ncc2ccn(S(=O)(=O)c3cccc4cccnc34)c2n1 [Example 356]
> 1 µM,–,< 6.00,< 6.00,< 6.00,–,O=S(=O)(c1cccc2cccnc12)n1ccc2cnc(Nc3ccc(N4CCNCC4)cc3OC3CCC3)nc21 [Example 358]
–,–,–,–,> 7.70,> 1 µM,Cc1cc(Nc2ncc3cnn(S(=O)(=O)c4cccc5cccnc45)c3n2)ccc1N1CCC(O)CC1 [Example 406]
–,–,–,–,> 7.70,> 1 µM,O=S(=O)(c1cccc2cccnc12)n1ncc2cnc(Nc3ccc(N4CCC(O)CC4)cc3)nc21 [Example 411]
–,–,–,–,> 7.70,> 1 µM,COc1cc(Nc2ncc3ccn(S(=O)(=O)c4cccc5cccnc45)c3n2)ccc1N1CCOCC1 [Example 432]
–,< 6.00,< 6.00,< 6.00,> 7.70,–,COc1cc(N2CCNCC2)ccc1Nc1ncc2c(n1)N(S(=O)(=O)c1cccc3cccnc13)CC2(C)C [Example 446]
–,–,–,–,> 7.70,> 1 µM,CC(=O)N1CCN(c2ccc(Nc3ncc4ccn(S(=O)(=O)c5cccc6cccnc56)c4n3)cc2)C[C@@H]1C [Example 449]
–,–,–,–,–,> 1 µM,CC(=O)OC1CCN(c2ccc(Nc3ncc4c(n3)N(S(=O)(=O)c3cccc5cccnc35)CC4(C)C)cc2)CC1 [Example 453]
–,–,–,–,> 7.70,> 1 µM,CC(=O)OC1CCN(c2ccc(Nc3ncc4ccn(S(=O)(=O)c5cccc6cccnc56)c4n3)cc2)CC1 [Example 454]
–,–,–,–,–,> 1 µM,CN(c1ccccc1Cn1ccc2cnc(Nc3ccc4[nH]c(=O)oc4c3)nc21)S(C)(=O)=O [Example 457]
–,–,–,–,> 7.70,> 1 µM,CC(=O)N1CCN(c2ccc(Nc3ncc4ccn(Cc5ccccc5N(C)S(C)(=O)=O)c4n3)cc2)C[C@H]1C [Example 458]
–,–,–,–,> 7.70,> 1 µM,C[C@H]1CN(c2ccc(Nc3ncc4c(n3)N(S(=O)(=O)c3cccc5cccnc35)CC4(C)C)cc2)CCN1 [Example 473]
> 1 µM,–,–,> 7.70,–,–,CN(c1ccccc1Cn1ccc2cnc(Nc3ccc(OC4CNC4)cc3)nc21)S(C)(=O)=O [Example 515]
–,–,–,–,–,> 1 µM,CN(c1ncccc1Cn1ccc2cnc(Nc3ccc(N4CCCC(O)C4)cc3)nc21)S(C)(=O)=O (centres unmarked) [Example 753]
